Patent US20220348885A1, “BIOLOGICALLY RELEVANT IN VITRO SCREENING OF HUMAN NEURONS” (The Board of Trustees of the Leland Stanford Junior …, priority 2016, published 2022)
“Also recorded” adds a separate entry of the source.

Experiments:
[1] = system: neural co-cultures consisting of primary glial cells and a mixture of glutamatergic excitatory iN cells and GABAergic inhibitory iN cells; assay: MEA recording of neuronal network activity, mixed excitatory/inhibitory co-culture approx. 70%/30% (Example 4); format: cell-based, human; conditions: 50 μM, excitatory/inhibitory approx. 70%/30%
Experimental: Induced excitatory neurons were seeded at day 4 and induced inhibitory neurons were seeded at day 6 after induction. A total of 200000 excitatory iN cells and 200000 inhibitory iN cells were plated simultaneously per well on 12-well MEA plates (Axion BioSystems) coated with matrigel. Primary glial cells were obtained as described in Example 1, and seeded directly on the plated iN cells at a density of 100000 cells per well.
Neural co-cultures were produced as described under Example 2 resulting in excitatory/inhibitory iN cell ratio of approximately 70%/30%. Recordings of neuronal activity, threshold values, and the procedure of measuring baseline and test conditions were performed as described under Example 3. Here, the effect of PTX was tested by adding a final concentration of 50 μM to the neural co-culture medium.

[2] = system: neural co-cultures consisting of primary glial cells and glutamatergic excitatory iN cells; assay: MEA recording of neuronal network activity, pure excitatory co-culture (Example 3); format: cell-based, human; conditions: for decrease of the frequency of total bursts / decrease of the frequency of total spikes (mean firing rate): dosed vs baseline
Experimental: Induced excitatory neurons were seeded at day 4 after induction by transcriptional activation of the neurogenic transcription factor NGN2, on 12-well MEA plates (Axion BioSystems) coated with matrigel. A total of 600,000 iN cells were plated per well. Primary glial cells were obtained by dissociating brains of mouse pups at postnatal day 3 with hippocampal and cerebellar structures being removed in advance. Dissociated brains were pre-cultured and passaged twice to remove primary neurons. Glial cells were then seeded directly on the plated iN cells at a density of 120,000 cells per well.
Recordings of spontaneous neuronal activity were performed at 1, 2, 3, and 4 weeks after plating for a period of 10 minutes each.
Neural co-cultures were produced as described under Example 1. […] Recordings were performed at week 4 in culture for 10 minutes for each condition including baseline measurements prior to compound application and test measurements following the addition of a single compound. Between baseline and test condition recordings, the plates were store in an incubator (37° C., 5% CO2) to readjust pH of the media. Each compound was applied to a different well in order to prevent secondary effects of previous treatments. First, the effect of the common compound solvent DMSO was tested by adding 0.1% to the neural co-culture medium. As depicted in FIG. 6A i and ii, DMSO alone increased the frequency of total spikes (mean firing rate) and the frequency of total bursts by 0.2 Hz and 0.018 Hz, respectively. Moreover, a minor increase in synchrony could be detected increasing the percentage of bursts within synchronized network activity by approximately 5%.

[3] = system: neural co-cultures with a stronger inhibitory component (excitatory/inhibitory iN cells 50%/50%, glial cells from human primary NSCs); assay: MEA recording of neuronal network activity, mixed excitatory/inhibitory co-culture approx. 50%/50% with human glial cells (Example 4, second experiment); format: cell-based; conditions: 50 μM, excitatory/inhibitory approx. 50%/50%, 4 weeks in culture
Experimental: In a second experiment, the effect of PTX on synchronized neuronal network activity in neural co-cultures with a stronger inhibitory component was assessed. For this purpose, a total of 100,000 excitatory iN cells and 300,000 inhibitory iN cells were plated simultaneously per well on 12-well MEA plates (Axion BioSystems) coated with matrigel. Glial cells were derived from human primary NSCs as described above and seeded directly on the plated iN cells at a density of 100,000 cells per well. Due to the different apoptosis rates of the two iN cells types mentioned earlier, the final ratio of excitatory/inhibitory neurons after 4 weeks in culture was approximately 50%/50%.
The effect of PTX was tested by adding a final concentration of 50 μM to the neural co-culture medium.

[4] = system: neural co-cultures consisting of primary human glial cells and a mixture of glutamatergic excitatory iN cells and GABAergic inhibitory iN cells; assay: Bicuculline-induced seizure-like network activity on MEA and co-application of antiepileptic drugs (Example 7); format: cell-based; conditions: co-application with 1 μM bicuculline, 3 doses
Experimental: Generation of human neural co-cultures and MEA recording settings and thresholds were as described under Example 6. […] Co-application of AEDs was performed in 3 different doses and each condition was tested in 6 technical replicates.

picrotoxin [PTX]
increase of synchrony of network bursts [1]: ~60% | spike and burst frequencies [1]: increase | change in spike and burst frequencies and synchronized network activity ([2]; 50 μM in 0.1% DMSO, pure excitatory culture without GABAergic cells): largely corresponded to the changes observed upon application of 0.1% DMSO | synchronized network burst pattern [3]: extended synchronized bursts with shortening inter-burst intervals

N#Cc1cc2[nH]c(=O)c(=O)[nH]c2cc1[N+](=O)[O-] [CNQX]
occurrence of synchronized network activity ([2]; 20 μM, week 4 in culture): completely abolished | decrease of the frequency of total bursts ([2]; 20 μM, week 4 in culture): 0.005 Hz | decrease of the frequency of total spikes (mean firing rate) ([2]; 20 μM, week 4 in culture): 0.4 Hz

NC(CCCP(=O)(O)O)C(=O)O (stereo not shown) [AP5]
reduction of the average duration of bursts ([2]; 50 μM, week 4 in culture): about 30% | synchronized network activity as measured by network burst percentage ([2]; 50 μM, week 4 in culture): reduced | decrease of the frequency of total bursts ([2]; 50 μM, week 4 in culture): 0.004 Hz | decrease of the frequency of total spikes (mean firing rate) ([2]; 50 μM, week 4 in culture): 0.2 Hz

Nc1nnc(-c2cccc(Cl)c2Cl)c(N)n1 [lamotrigine]
mean firing rate, network burst duration, and synchrony [4]: to baseline level (solvent control), or further reduced; also recorded: dose-dependent decrease

O=C1NC(=O)C(c2ccccc2)(c2ccccc2)N1 [phenytoin]
mean firing rate, network burst duration, and synchrony [4]: to baseline level (solvent control), or further reduced; also recorded: dose-dependent decrease
